According to PubChem BioAssay (NCI):
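Cells were grown in 96-well plates and exposed to each compound for 48 hours at five concentrations; endpoints were interpolated linearly between bracketing concentrations, or set to the highest concentration if not reached. GI50 is the concentration that inhibits growth by half. The concentration for full growth arrest is given as TGI.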

What was measured:
Assay in all cases: DTP human tumour cell line panel, 48 h
BT-549 breast = tested on: BT-549 breast
EKVX NSCLC = tested on: EKVX NSCLC
HCC-2998 colon = tested on: HCC-2998 colon
KM12 colon = tested on: KM12 colon
NCI-H522 lung = tested on: NCI-H522 lung
PC-3 prostate = tested on: PC-3 prostate
RXF 393 renal = tested on: RXF 393 renal
SF-295 CNS = tested on: SF-295 CNS
SK-OV-3 ovarian = tested on: SK-OV-3 ovarian
U251 CNS = tested on: U251 CNS

## COc1cc(/C=C2\C(=O)N(c3cccc(NC(C)=O)c3)C(c3ccccc3)S2(=O)=O)cc(OC)c1OC (configuration not stated)
BT-549 breast
  TGI: > 100 µM
EKVX NSCLC
  TGI: > 100 µM
HCC-2998 colon
  TGI: > 100 µM
KM12 colon
  TGI: > 100 µM
NCI-H522 lung
  TGI: > 100 µM
PC-3 prostate
  TGI: > 100 µM
RXF 393 renal
  TGI: > 100 µM
SF-295 CNS
  TGI: > 100 µM
SK-OV-3 ovarian
  TGI: > 100 µM
U251 CNS
  TGI: > 100 µM

## N=C1OC(CN2CCN(c3ccccc3)CC2)CN1C(=O)Nc1ccccc1 (configuration not stated)
BT-549 breast
  TGI: > 100 µM
EKVX NSCLC
  TGI: > 100 µM
HCC-2998 colon
  TGI: > 100 µM
KM12 colon
  TGI: > 100 µM
NCI-H522 lung
  TGI: > 100 µM
PC-3 prostate
  TGI: > 100 µM
RXF 393 renal
  TGI: > 100 µM
SF-295 CNS
  TGI: > 100 µM
SK-OV-3 ovarian
  TGI: > 100 µM
U251 CNS
  TGI: > 100 µM

## COc1ccc2c(c1)/C(=C\c1c(Cl)nc3n1CCS3)C(=O)N2
BT-549 breast
  TGI: 44 µM
EKVX NSCLC
  TGI: 77 µM
HCC-2998 colon
  TGI: 8.31 µM
KM12 colon
  TGI: 23.2 µM
NCI-H522 lung
  TGI: 24.4 µM
PC-3 prostate
  TGI: 20 µM
RXF 393 renal
  TGI: 9.91 µM
SF-295 CNS
  TGI: 44.5 µM
SK-OV-3 ovarian
  TGI: 66.9 µM
U251 CNS
  TGI: 57.6 µM

## CCCC(=O)OCC1OC(n2cc(F)c(=O)[nH]c2=O)CC1OC(=O)CCC (configuration not stated)
BT-549 breast
  TGI: > 10 µM
EKVX NSCLC
  TGI: > 10 µM
HCC-2998 colon
  TGI: > 10 µM
KM12 colon
  TGI: > 10 µM
NCI-H522 lung
  TGI: > 10 µM
PC-3 prostate
  TGI: > 10 µM
RXF 393 renal
  TGI: > 10 µM
SF-295 CNS
  TGI: > 10 µM
SK-OV-3 ovarian
  TGI: > 10 µM
U251 CNS
  TGI: > 10 µM

## Cc1ccc(C(=O)Nc2ccc(S(=O)(=O)O)c3cc(S(=O)(=O)O)cc(S(=O)(=O)O)c23)cc1NC(=O)c1cccc(NC(=O)Nc2cccc(C(=O)Nc3cc(C(=O)Nc4ccc(S(=O)(=O)O)c5cc(S(=O)(=O)O)cc(S(=O)(=O)O)c45)ccc3C)c2)c1
BT-549 breast
  TGI: > 100 µM
EKVX NSCLC
  TGI: > 100 µM
HCC-2998 colon
  TGI: > 100 µM
KM12 colon
  TGI: > 100 µM
NCI-H522 lung
  TGI: > 100 µM
PC-3 prostate
  TGI: > 100 µM
RXF 393 renal
  TGI: > 100 µM
SF-295 CNS
  TGI: > 100 µM
SK-OV-3 ovarian
  TGI: > 100 µM
U251 CNS
  TGI: > 100 µM

## Cc1ccc([N+](=O)[O-])cc1S(=O)(=O)Nc1ccc(C2=NN(S(=O)(=O)c3cc([N+](=O)[O-])ccc3C)C(c3cccs3)C2)cc1 (configuration not stated)
BT-549 breast
  TGI: > 100 µM
EKVX NSCLC
  TGI: > 100 µM
HCC-2998 colon
  TGI: 56.6 µM
KM12 colon
  TGI: > 100 µM
NCI-H522 lung
  TGI: 79.5 µM
PC-3 prostate
  TGI: > 100 µM
RXF 393 renal
  TGI: > 100 µM
SF-295 CNS
  TGI: 69.2 µM
SK-OV-3 ovarian
  TGI: > 100 µM
U251 CNS
  TGI: > 100 µM

## CCN(CC)Cc1cc(N=Nc2c(O)ccc3c(N=Nc4ccc(O)c(CN(CC)CC)c4)c(O)ccc23)ccc1O
BT-549 breast
  TGI: 9.11 µM
EKVX NSCLC
  TGI: 21.2 µM
HCC-2998 colon
  TGI: 5.18 µM
KM12 colon
  TGI: > 21.9 µM
NCI-H522 lung
  TGI: 10.3 µM
PC-3 prostate
  TGI: > 41.1 µM
RXF 393 renal
  TGI: > 23.1 µM
SF-295 CNS
  TGI: 20 µM
SK-OV-3 ovarian
  TGI: 6.85 µM
U251 CNS
  TGI: 15.5 µM

## CCOC(CBr)OC1C(=O)OCC1(C)C (configuration not stated)
BT-549 breast
  TGI: > 100 µM
EKVX NSCLC
  TGI: > 100 µM
HCC-2998 colon
  TGI: > 100 µM
KM12 colon
  TGI: > 100 µM
NCI-H522 lung
  TGI: > 100 µM
PC-3 prostate
  TGI: > 100 µM
RXF 393 renal
  TGI: > 100 µM
SF-295 CNS
  TGI: > 100 µM
SK-OV-3 ovarian
  TGI: > 100 µM
U251 CNS
  TGI: > 100 µM

## O=C(CCCc1cccc2[nH]c3c(c12)CN(Cc1ccccc1)CC3)c1ccc(F)cc1
BT-549 breast
  TGI: > 100 µM
EKVX NSCLC
  TGI: > 100 µM
HCC-2998 colon
  TGI: 38.5 µM
KM12 colon
  TGI: > 100 µM
NCI-H522 lung
  TGI: > 91.1 µM
PC-3 prostate
  TGI: > 100 µM
RXF 393 renal
  TGI: > 100 µM
SF-295 CNS
  TGI: > 100 µM
SK-OV-3 ovarian
  TGI: > 100 µM
U251 CNS
  TGI: > 100 µM

## COc1cc2ncnc(NS(=O)(=O)c3cc4ccccc4s3)c2cc1OC
BT-549 breast
  TGI: > 100 µM
EKVX NSCLC
  TGI: > 100 µM
HCC-2998 colon
  TGI: > 100 µM
KM12 colon
  TGI: > 100 µM
NCI-H522 lung
  TGI: > 100 µM
PC-3 prostate
  TGI: > 100 µM
RXF 393 renal
  TGI: > 100 µM
SF-295 CNS
  TGI: > 100 µM
SK-OV-3 ovarian
  TGI: > 100 µM
U251 CNS
  TGI: > 100 µM

## O=C1/C(=C/c2cccc([N+](=O)[O-])c2)N=C(c2ccccc2)N1c1nc2ccc(Sc3ccccc3)cc2[nH]1
BT-549 breast
  TGI: > 100 µM
EKVX NSCLC
  TGI: > 100 µM
HCC-2998 colon
  TGI: > 100 µM
KM12 colon
  TGI: > 100 µM
NCI-H522 lung
  TGI: > 100 µM
PC-3 prostate
  TGI: > 100 µM
RXF 393 renal
  TGI: > 100 µM
SF-295 CNS
  TGI: > 100 µM
SK-OV-3 ovarian
  TGI: > 100 µM
U251 CNS
  TGI: > 100 µM

## Nc1cc(C2CCCc3c2[nH]c2ccccc32)ccc1O (configuration not stated)
BT-549 breast
  TGI: > 100 µM
EKVX NSCLC
  TGI: > 100 µM
HCC-2998 colon
  TGI: > 100 µM
KM12 colon
  TGI: > 100 µM
NCI-H522 lung
  TGI: > 100 µM
PC-3 prostate
  TGI: > 100 µM
RXF 393 renal
  TGI: > 100 µM
SF-295 CNS
  TGI: > 100 µM
SK-OV-3 ovarian
  TGI: > 100 µM
U251 CNS
  TGI: > 100 µM

## O=[N+]([O-])c1ccc2c(c1)nc1n2C(c2c(F)cccc2F)SC1 (configuration not stated)
BT-549 breast
  TGI: > 100 µM
EKVX NSCLC
  TGI: > 100 µM
HCC-2998 colon
  TGI: > 100 µM
KM12 colon
  TGI: > 100 µM
NCI-H522 lung
  TGI: > 100 µM
PC-3 prostate
  TGI: > 100 µM
RXF 393 renal
  TGI: > 100 µM
SF-295 CNS
  TGI: > 100 µM
SK-OV-3 ovarian
  TGI: > 100 µM
U251 CNS
  TGI: > 100 µM

## CCC1(O)C(=O)OCc2c1cc1n(c2=O)Cc2cc3cc4c(cc3nc2-1)OCO4 (configuration not stated)
BT-549 breast
  GI50: < 0.01 µM
  TGI: > 100 µM
EKVX NSCLC
  TGI: 4.27 µM
HCC-2998 colon
  TGI: 0.396 µM
KM12 colon
  GI50: 0.0978 µM
  TGI: 5.69 µM
NCI-H522 lung
  TGI: 0.383 µM
PC-3 prostate
  TGI: > 100 µM
RXF 393 renal
  TGI: 0.0578 µM
SF-295 CNS
  TGI: 0.198 µM
SK-OV-3 ovarian
  TGI: 1.81 µM
U251 CNS
  TGI: 0.183 µM

## CC1=C(C)C(=O)OC(C(C)(O)C2(O)CC3OC34C3CC(O)C56OC5C=CC(=O)C6(C)C3CCC42C)C1 (configuration not stated)
BT-549 breast
  TGI: 3.11 µM
EKVX NSCLC
  TGI: 10.4 µM
HCC-2998 colon
  TGI: 2.73 µM
KM12 colon
  TGI: 7.54 µM
NCI-H522 lung
  TGI: 1.97 µM
PC-3 prostate
  TGI: 14.2 µM
RXF 393 renal
  TGI: 6.68 µM
SF-295 CNS
  TGI: 15.2 µM
SK-OV-3 ovarian
  TGI: 14.2 µM
U251 CNS
  TGI: 7.34 µM

## COC(=O)[C@@]12CSC[C@]1(C(=O)OC)N[C@@H](c1ccccc1O)C2
BT-549 breast
  TGI: > 100 µM
EKVX NSCLC
  TGI: > 100 µM
HCC-2998 colon
  TGI: > 100 µM
KM12 colon
  TGI: > 100 µM
NCI-H522 lung
  TGI: > 100 µM
PC-3 prostate
  TGI: > 100 µM
RXF 393 renal
  TGI: > 100 µM
SF-295 CNS
  TGI: > 100 µM
SK-OV-3 ovarian
  TGI: > 100 µM
U251 CNS
  TGI: > 100 µM

## NCCCn1c(Cl)nc2ccccc21
BT-549 breast
  TGI: > 100 µM
EKVX NSCLC
  TGI: > 100 µM
HCC-2998 colon
  TGI: > 100 µM
KM12 colon
  TGI: > 100 µM
NCI-H522 lung
  TGI: > 100 µM
PC-3 prostate
  TGI: > 100 µM
RXF 393 renal
  TGI: > 100 µM
SF-295 CNS
  TGI: > 100 µM
SK-OV-3 ovarian
  TGI: > 100 µM
U251 CNS
  TGI: > 100 µM

## COc1cc(C[C@@]2(C)[C@@H]3CCC[C@H](CO)[C@@]3(C)CC[C@@H]2C)c(Cl)c(OC)c1
BT-549 breast
  TGI: 33.8 µM
EKVX NSCLC
  TGI: 27.5 µM
HCC-2998 colon
  TGI: 29.8 µM
KM12 colon
  TGI: 37.8 µM
NCI-H522 lung
  TGI: 28.9 µM
PC-3 prostate
  TGI: 27.2 µM
RXF 393 renal
  TGI: 24.7 µM
SF-295 CNS
  TGI: 29.9 µM
SK-OV-3 ovarian
  TGI: 31.3 µM
U251 CNS
  TGI: 29 µM

## CCO/N=C\c1ccc2oc(-c3ccccc3)cc(=O)c2c1
BT-549 breast
  TGI: 24.4 µM
EKVX NSCLC
  TGI: 36.8 µM
HCC-2998 colon
  TGI: 6.08 µM
KM12 colon
  TGI: 11.1 µM
NCI-H522 lung
  TGI: 0.265 µM
PC-3 prostate
  TGI: 20.4 µM
RXF 393 renal
  TGI: 11.6 µM
SF-295 CNS
  TGI: 16.3 µM
SK-OV-3 ovarian
  TGI: 24 µM
U251 CNS
  TGI: 17.6 µM

## CCC1c2[nH]c3ccccc3c2C[C@H]2C(=O)NC(C)C(=O)N12 (some centres not stated)
BT-549 breast
  TGI: > 100 µM
EKVX NSCLC
  TGI: > 100 µM
HCC-2998 colon
  TGI: > 100 µM
KM12 colon
  TGI: > 100 µM
NCI-H522 lung
  TGI: > 100 µM
PC-3 prostate
  TGI: > 100 µM
RXF 393 renal
  TGI: > 100 µM
SF-295 CNS
  TGI: > 100 µM
SK-OV-3 ovarian
  TGI: > 100 µM
U251 CNS
  TGI: > 100 µM

## Cc1cn(S(=O)(=O)c2ccccc2)c2c(OCc3ccccc3)cc([N+](=O)[O-])cc12
BT-549 breast
  TGI: > 100 µM
EKVX NSCLC
  TGI: > 100 µM
HCC-2998 colon
  TGI: > 100 µM
KM12 colon
  TGI: > 100 µM
NCI-H522 lung
  TGI: > 100 µM
PC-3 prostate
  TGI: > 100 µM
RXF 393 renal
  TGI: > 100 µM
SF-295 CNS
  TGI: > 100 µM
SK-OV-3 ovarian
  TGI: > 100 µM
U251 CNS
  TGI: > 100 µM
